# Laboratory results: patent US10131652B2, “Pyrimidinyloxy benzene derivatives as herbicides” (E. I. DU PONT DE NEMOURS AND COMPANY, priority 2014, dated 2018)
# Tests used:
# Experiment in all cases: Test D pre-/postemergence plant response
# Format in all cases: in vivo
# [1] = system: yellow nutsedge (Cyperus esculentus); settings: Postemergence; for Plant response rating, Nutsedge, Yellow: scale 0 to 100, 0 no effect, 100 complete control
# Method in brief: (§1)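 Greenhouse herbicidal response, both pre- and postemergence applications, with solvent/surfactant formulation. Postemergence plants were at 1- to 4-leaf stage. Visual scores 0–100 relative to controls, taken 13 to 15 days later.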
# [2] = system: lambsquarters (Chenopodium album); settings: Postemergence; for Plant response rating, Lambsquarters: scale 0 to 100, 0 no effect, 100 complete control
# Method in brief: as §1
# [3] = system: pigweed (Amaranthus retroflexus); settings: Postemergence; for Plant response rating, Pigweed: scale 0 to 100, 0 no effect, 100 complete control
# Method in brief: as §1
# [4] = system: Italian ryegrass (Lolium multiflorum); settings: Postemergence; for Plant response rating, Ryegrass, Italian: scale 0 to 100, 0 no effect, 100 complete control
# Method in brief: as §1
# [5] = system: winter wheat (Triticum aestivum); settings: Postemergence; for Plant response rating, Wheat: scale 0 to 100, 0 no effect, 100 complete control
# Method in brief: as §1
# [6] = system: giant foxtail (Setaria faberii); settings: Postemergence; for Foxtail, Giant plant response rating: scale 0 to 100 (0 no effect, 100 complete control); for Plant response rating, Foxtail, Giant: scale 0 to 100, 0 no effect, 100 complete control
# Method in brief: as §1
# [7] = system: ragweed (common ragweed, Ambrosia elatior); settings: Postemergence; for Plant response rating, Ragweed: scale 0 to 100, 0 no effect, 100 complete control
# Method in brief: as §1
# [8] = system: blackgrass (Alopecurus myosuroides); settings: Postemergence; for Blackgrass plant response rating: scale 0 to 100 (0 no effect, 100 complete control); for Plant response rating, Blackgrass: scale 0 to 100, 0 no effect, 100 complete control
# Method in brief: as §1
# [9] = system: waterhemp (common waterhemp, Amaranthus rudis); settings: Postemergence; for Plant response rating, Waterhemp: scale 0 to 100, 0 no effect, 100 complete control
# Method in brief: as §1
# [10] = system: galium (catchweed bedstraw, Galium aparine); settings: Postemergence; for Plant response rating, Galium: scale 0 to 100, 0 no effect, 100 complete control
# Method in brief: as §1
# [11] = system: velvetleaf (Abutilon theophrasti); settings: Postemergence; for Plant response rating, Velvetleaf: scale 0 to 100, 0 no effect, 100 complete control
# Method in brief: as §1
# [12] = system: barnyardgrass (Echinochloa crus-galli); settings: Postemergence; for Barnyardgrass plant response rating: scale 0 to 100 (0 no effect, 100 complete control); for Plant response rating, Barnyardgrass: scale 0 to 100, 0 no effect, 100 complete control
# Method in brief: as §1
# [13] = system: corn (Zea mays); settings: Postemergence; for Corn plant response rating: scale 0 to 100 (0 no effect, 100 complete control); for Plant response rating, Corn: scale 0 to 100, 0 no effect, 100 complete control
# Method in brief: as §1
# [14] = system: large (Lg) crabgrass (Digitaria sanguinalis); settings: Postemergence; for Crabgrass, Large plant response rating: scale 0 to 100 (0 no effect, 100 complete control); for Plant response rating, Crabgrass, Large: scale 0 to 100, 0 no effect, 100 complete control
# Method in brief: as §1
# [15] = system: soybean (Glycine max); settings: Postemergence; for Plant response rating, Soybean: scale 0 to 100, 0 no effect, 100 complete control
# Method in brief: as §1
# [16] = system: oilseed rape (Brassica napus); settings: Postemergence; for Plant response rating, Oilseed Rape: scale 0 to 100, 0 no effect, 100 complete control
# Method in brief: as §1
# [17] = system: morningglory (Ipomoea coccinea); settings: Postemergence; for Plant response rating, Morningglory: scale 0 to 100, 0 no effect, 100 complete control
# Method in brief: as §1
# [18] = system: johnsongrass (Sorghum halepense); settings: Postemergence; for Plant response rating, Johnsongrass: scale 0 to 100, 0 no effect, 100 complete control
# Method in brief: as §1
# [19] = 31 g ai/ha, scale 0 to 100 (0 no effect, 100 complete control)
smiles,measurement,setting,value
CC(F)(F)c1cc(-c2ccccc2Oc2ncc(Br)cn2)no1 [Compound 149],"Nutsedge, Yellow plant response rating",[1]; [19],0
same,"Plant response rating, Nutsedge, Yellow",[1]; 62 g ai/ha,5
same,"Plant response rating, Nutsedge, Yellow",[1]; 125 g ai/ha,5
same,Lambsquarters plant response rating,[2]; [19],70
same,"Plant response rating, Lambsquarters",[2]; 62 g ai/ha,80
same,"Plant response rating, Lambsquarters",[2]; 125 g ai/ha,85
same,Pigweed plant response rating,[3]; [19],85
same,"Plant response rating, Pigweed",[3]; 62 g ai/ha,95
same,"Plant response rating, Pigweed",[3]; 125 g ai/ha,90
same,"Ryegrass, Italian plant response rating",[4]; [19],0
same,"Plant response rating, Ryegrass, Italian",[4]; 62 g ai/ha,0
same,"Plant response rating, Ryegrass, Italian",[4]; 125 g ai/ha,0
same,Wheat plant response rating,[5]; [19],0
same,"Plant response rating, Wheat",[5]; 62 g ai/ha,0
same,"Plant response rating, Wheat",[5]; 125 g ai/ha,10
same,"Foxtail, Giant plant response rating",[6]; 16 g ai/ha,5
same,"Foxtail, Giant plant response rating",[6]; 31 g ai/ha,10
same,"Plant response rating, Foxtail, Giant",[6]; 62 g ai/ha,10
same,"Plant response rating, Foxtail, Giant",[6]; 125 g ai/ha,30
same,Ragweed plant response rating,[7]; [19],30
same,"Plant response rating, Ragweed",[7]; 62 g ai/ha,30
same,"Plant response rating, Ragweed",[7]; 125 g ai/ha,45
same,Blackgrass plant response rating,[8]; 16 g ai/ha,0
same,Blackgrass plant response rating,[8]; 31 g ai/ha,0
same,"Plant response rating, Blackgrass",[8]; 62 g ai/ha,0
same,"Plant response rating, Blackgrass",[8]; 125 g ai/ha,30
same,Waterhemp plant response rating,[9]; [19],80
same,"Plant response rating, Waterhemp",[9]; 62 g ai/ha,95
same,"Plant response rating, Waterhemp",[9]; 125 g ai/ha,100
same,Galium plant response rating,[10]; [19],60
same,"Plant response rating, Galium",[10]; 62 g ai/ha,70
same,"Plant response rating, Galium",[10]; 125 g ai/ha,95
same,Velvetleaf plant response rating,[11]; [19],30
same,"Plant response rating, Velvetleaf",[11]; 62 g ai/ha,40
same,"Plant response rating, Velvetleaf",[11]; 125 g ai/ha,65
same,Barnyardgrass plant response rating,[12]; 16 g ai/ha,5
same,Barnyardgrass plant response rating,[12]; 31 g ai/ha,5
same,"Plant response rating, Barnyardgrass",[12]; 62 g ai/ha,5
same,"Plant response rating, Barnyardgrass",[12]; 125 g ai/ha,10
same,Corn plant response rating,[13]; 16 g ai/ha,0
same,Corn plant response rating,[13]; 31 g ai/ha,5
same,"Plant response rating, Corn",[13]; 62 g ai/ha,5
same,"Plant response rating, Corn",[13]; 125 g ai/ha,5
same,"Crabgrass, Large plant response rating",[14]; 16 g ai/ha,5
same,"Crabgrass, Large plant response rating",[14]; 31 g ai/ha,5
same,"Plant response rating, Crabgrass, Large",[14]; 62 g ai/ha,10
same,"Plant response rating, Crabgrass, Large",[14]; 125 g ai/ha,15
same,Soybean plant response rating,[15]; [19],40
same,"Plant response rating, Soybean",[15]; 62 g ai/ha,65
same,"Plant response rating, Soybean",[15]; 125 g ai/ha,65
same,Oilseed Rape plant response rating,[16]; [19],30
same,"Plant response rating, Oilseed Rape",[16]; 62 g ai/ha,60
same,"Plant response rating, Oilseed Rape",[16]; 125 g ai/ha,85
same,Morningglory plant response rating,[17]; [19],60
same,"Plant response rating, Morningglory",[17]; 62 g ai/ha,70
same,"Plant response rating, Morningglory",[17]; 125 g ai/ha,80
same,Johnsongrass plant response rating,[18]; [19],10
same,"Plant response rating, Johnsongrass",[18]; 62 g ai/ha,15
same,"Plant response rating, Johnsongrass",[18]; 125 g ai/ha,10
